Measured values as given in patent US9260417B2, “Therapeutic methods and compositions involving allosteric kinase inhibition” (AMITECH THERAPEUTIC SOLUTIONS, INC., priority 2010, dated 2016).

Assays:
[1] = biological target: CDC2L1 (Homo sapiens (Human), UniProt P21127); assay: KINOMEscan competitive binding assay; settings: 10 uM
[2] = test system: B-RAF (V600E); assay: ERK phosphorylation in 1205Lu melanoma cells expressing B-RAF V600E; assay type: cell-based, human; settings: 10 μM, 1 h
[3] = biological target: PAK1 (Homo sapiens (Human), UniProt Q13153); assay: KINOMEscan competitive binding assay; settings: 10 uM
[4] = test system: NCI60 panel; assay: NCI60 panel growth inhibition; assay type: cell-based; settings: average across NCI60 panel; read-out: average growth inhibitory concentration (GI50)
[5] = test system: MDA-MB231 human breast carcinoma cells; assay: MDA-MB231 orthotopic breast cancer xenograft; assay type: in vivo, mice
Description: Tumors were generated by injection of MDA-MB231 human breast carcinoma cells (1×10^6 tumor cells in 50 μl of sterile PBS) into the mammary fatpad of 6-8 week old female Nu/Nu mice. Tumors were allowed to grow and the mice were randomized into two groups with an average tumor volume of 100 mm^3. […] Tumor growth was monitored by measuring the tumor length and width with precision calipers every 2 days and calculating tumor volume using the following formula: Tumor volume=0.5*(length)*(width)^2, provided the smaller measurement was utilized as the length. […] Scale bar 20 μM. […] Cells were lysed in RIPA buffer (50 mM Tris pH 7.4, 100 mM NaCl, 0.1% SDS, 1.0% TritonX-100, 1% deoxycholate) supplemented with complete protease inhibitor mixture (Roche), 50 mM NaF, and 1 mM Na3VO4 and centrifuged at 13,000 g for 10 min at 4° C. Protein concentration was determined by BCA assay and 30 μg of protein was loaded per lane of 10% SDS-PAGE gel. Immunohistochemistry in FIG. 18A was performed according to the manufacturer's recommendations (Vector Labs), on […] sections of paraffin-embedded tumors from the orthotopic xenograft breast cancer mouse model (MDA-MB231). For phospho-S338 CRAF immunohistochemistry, antigen retrieval was performed in citrate buffer pH 6.0 at 95° C. for 20 min. […]

[6] = test system: bFGF induced angiogenesis; assay: Mouse Matrigel model of angiogenesis; assay type: in vivo, mice; settings: 50 mg/kg, ip, bid
Description: On day 5 after implantation of the Matrigel, the mice were administered FITC-lectin to label blood vessels. The plugs were removed and visualized by confocal microscopy followed by homogenization and quantification of total FITC. Error bars represent ±SEM. […] Thin sections (5 μm) of the Matrigel plugs were immunostained for vessels with an EC mix (anti-Flk, anti-CD31, anti-VE-Cadherin, and anti-endoglin). […] (FIG. 9C) 6 inhibits phosphorylation of PDGFRβY751 in stromal cells. Thin sections (5 μm) of the Matrigel plugs were immunostained for pericytes and fibroblast with α-smooth muscle actin and for phospho-PDGFRβ Y751 levels. ECs were immunostained with anti-CD31. […] Thin sections (5 μm) of the Matrigel plugs were immunostained for vessels with an EC mix (described as in 9B). TOPRO-3 was used as a nuclear counterstain and TUNEL staining was used to detect apoptotic nuclei. Images were taken using confocal laser scanning microscopy. […]
Female Nu/Nu mice were implanted with growth-factor depleted Matrigel (BD Biosciences, San Jose, Calif.) in the flank containing either PBS or 200 ng of bFGF (Peprotech). […] Five days after matrigel implantation, mice were tail-vein injected with FITC-lectin and plugs were harvested and imaged by confocal microscopy and quantified after homogenization in ice-cold PBS using a fluorescent microplate reader (Tecan Systems, Inc., San Jose, Calif.). […]

[7] = biological target: FGFR2 (Homo sapiens (Human), UniProt P21802); assay: KINOMEscan competitive binding assay; settings: 10 uM
[8] = biological target: VEGFR2 (Homo sapiens (Human), UniProt P35968); assay: KINOMEscan competitive binding assay; settings: 10 uM
[9] = biological target: CDK11 (Homo sapiens (Human), UniProt Q9BWU1); assay: KINOMEscan competitive binding assay; settings: 10 uM
[10] = test system: neointimal hyperplasia; assay: Mouse carotid artery wire-injury model of neointimal hyperplasia; assay type: in vivo, mice
Description: (FIG. 11A) Mouse carotid arteries were wire-injured as described in the Methods. […] (FIG. 11C) The corresponding percent stenosis (reflecting luminal narrowing) was calculated as described herein, *p<0.01. Error bars are reported as ±SEM. (FIG. 11D) PDGFRβ autophosphorylation in the injured arteries was measured on day 14, 4 h post-dose.
Restenosis is a process that commonly results from balloon angioplasty and/or stent placement resulting in eventual occlusion of arteries by a process described as neointimal hyperplasia (NIH). […] Therefore, the combination of PDGFRβ/B-RAF inhibition would be an ideal treatment for NIH. […] Mouse carotid arteries were wire-injured and treated the following day with 100 mg/kg, qd, via oral gavage. Representative sections of the injured arteries, stained with hematoxylin and eosin (FIG. 11A), were used to calculate the intimal/medial ratio—a measurement of the thickness of the inner two layers of the artery wall, which correlates with the size of the vessel lumen. […] As a pharmacodynamic endpoint, representative arteries were excised 4 h after the final dose and lysates were immunoblotted to detect activated PDGFRβ.

[11] = biological target: PIM1 (Homo sapiens (Human), UniProt P11309); assay: KINOMEscan competitive binding assay; settings: 10 uM

CSc1nc(N)cc(Oc2ccc(-c3nnc(Nc4cccc(C(F)(F)F)c4)[nH]3)cc2)n1 [Compound 6]
% Control [1]: 70%
phosphorylation of ERK T202/Y204 in cells expressing constitutively active B-RAF (V600E) [2]: completely disrupted
% Control [3]: 100%
GI50 [4]: 490 nM
breast tumor growth compared to vehicle ([5]; 50 mg/kg, bid, ip): suppresses tumor growth
phosphorylation of CRAF S338 in breast tumors ([5]; three consecutive days, tumors resected 1 h after final dose): clearly inhibits phosphorylation of S338
p-ERK staining in endothelial cells of Matrigel plugs [6]: suppression in the p-ERK staining
p-PDGFRβY751 signal in stromal compartment of Matrigel plugs [6]: complete suppression
% Control [7]: 100%
% Control [8]: 80%
% Control [9]: 32%
percent stenosis ([10]; 100 mg/kg, qd, oral gavage, 14 days): greatly reduced
PDGFRβ activation in injured arteries ([10]; 4 h after the final dose): inhibited PDGFRβ activation
% Control [11]: 96%
